Measurements: patent US5010058A, “3,5,6-substituted derivatives of 1,2-O-isopropylidene-α,D-glucofuranose and intermediates for preparing these derivatives” (501 Greenwich Pharmaceuticals Incorporated, priority 1989, dated 1991)

Assays:
[1] = tested on: BUD-8 skin cell fibroblasts; experiment: Proliferation of BUD-8 skin cell fibroblasts (3H-thymidine uptake); format: cell-based, human; conditions: for 3H-Thymidine uptake by BUD-8 skin cells: triplicates ± SD
Procedure: The human skin cell fibroblast line, BUD-8, was originally derived from the normal skin of a person and can now be obtained from the American Type Culture Collection.
The number of BUD-8 cells was expanded for use by culture in 25 cm^2 flasks at 37° C. in an atmosphere of 5% CO2 in air. At approximately 4-5 five day intervals, or when confluence was reached, the cells were passaged. This was accomplished by detaching the cells with a Teflon scraper, washing and reseeding the cells at a lower density into fresh tissue culture flasks.
The effect of these compound on the proliferative capacity of human BUD-8 skin fibroblasts was measured with the use of a ^3 H-thymidine incorporation assay using culture conditions which were similar to those used for the Con-A blastogenesis assay, described previously. Cultured skin cells were detached from the surface of tissue culture flasks mechanically with a Teflon scraper. The cells were washed, resuspended in incubation medium and the viabilities were determined. These cells were then plated in triplicate at a density of 2×10^3 cells/0.1 ml/microtiter well for the proliferation assays. […] Eighteen hours later, each of the BUD-8 cultures was examined morphologically for evidence of compound-induced toxicity such as cell rounding or granularity. The thymidine-pulsed cells were then precipitated and the amount of ^3 H-thymidine incorporation was counted in a liquid scintillation counter. […]
^a Experimental compounds were first suspended in DMSO or ethanol,
^b The effect of experimental compounds on the proliferation of BUD8

[2] = in vivo; cited from earlier work
[3] = tested on: normal spleen cells / splenic T-lymphocytes (Con-A stimulated); conditions: THERAFECTIN comparison; cited from earlier work

SMILES | anti-proliferative effect on skin cells [1] | inhibition at 1 µg/mL ([1]; Homo sapiens, Fibroblast, compound 1 ug/ml, percent change from no compound, read-out: 3H-Thymidine uptake by BUD-8 skin cells, % effect) | inhibition at 10 µg/mL ([1]; Homo sapiens, Fibroblast, compound 10 ug/ml, percent change from no compound, read-out: 3H-Thymidine uptake by BUD-8 skin cells, % effect) | inhibition at 25 µg/mL ([1]; Homo sapiens, Fibroblast, compound 25 ug/ml, percent change from no compound, read-out: 3H-Thymidine uptake by BUD-8 skin cells, % effect) | inhibition at 100 µg/mL ([1]; Homo sapiens, Fibroblast, compound 100 ug/ml, percent change from no compound, read-out: 3H-Thymidine uptake by BUD-8 skin cells, % effect) | inhibition at 300 µg/mL ([1]; Homo sapiens, Fibroblast, compound 300 ug/ml, percent change from no compound, read-out: 3H-Thymidine uptake by BUD-8 skin cells, % effect) | inhibition at 750 µg/mL ([1]; Homo sapiens, Fibroblast, compound 750 ug/ml, percent change from no compound, read-out: 3H-Thymidine uptake by BUD-8 skin cells, % effect) | 3H-Thymidine uptake by BUD-8 skin cells ([1]; compound 1 ug/ml) | 3H-Thymidine uptake by BUD-8 skin cells ([1]; compound 10 ug/ml) | 3H-Thymidine uptake by BUD-8 skin cells ([1]; compound 25 ug/ml) | 3H-Thymidine uptake by BUD-8 skin cells ([1]; compound 100 ug/ml) | 3H-Thymidine uptake by BUD-8 skin cells ([1]; compound 300 ug/ml) | 3H-Thymidine uptake by BUD-8 skin cells ([1]; compound 750 ug/ml) | toxicity [2] | utility in rheumatoid arthritis [2] | usual concentration for significant inhibition [3]
CCCCCCCOC1C(C(C)O)OC2OC(C)(C)OC21 [Ex. 3, 1,2-O-Isopropylidene-3-O-(n-heptyl)-6-deoxy-α,D-glucofuranose] | anti-proliferative effect that was statistically significant | 58% | 49% | 19% | 30% | 66% | 43% | 2,589 ± 202 cpm | 3,139 ± 232 cpm | 4,978 ± 632 cpm | 4,288 ± 723 cpm | 2,067 ± 302 cpm | 3,496 ± 1,084 cpm | – | – | –
CN(C)CCCO[C@@H]1[C@H]2OC(C)(C)O[C@H]2O[C@@H]1[C@H](O)CO [THERAFECTIN, 1,2-O-Isopropylidene-3-O-3('N,N'-dimethylamino-n-propyl)-α,D-glucofuranose] | – | – | – | – | – | – | – | – | – | – | – | – | – | little toxicity | demonstrated utility in managing the signs and symptoms of rheumatoid arthritis | 1,000 ug/ml
